We go through three compounds from US20240374623A1, “TKTL1 INHIBITORS FOR ANTIVIRAL THERAPY” (Tavargenix GmbH, priority 2021, published 2024).

pIC50: −log10 of the molar value.

Series [1] in a line: In vivo pharmacokinetics: blood-brain barrier penetration. As to conditions: in vivo pharmacokinetics data. The text has this: A preferred inhibitory thiamine analog is the substance benfo-oxythiamine (B-OT). B-OT is a precursor (“pro-pharmacon”, “prodrug”) of oxythiamine, can be applied orally and releases oxythiamine shortly after its uptake into the mammalian organism. Via the bloodstream, B-OT can reach all cells in all parts of the body.

The subject of another series is TKTL1 mRNA. In kind it is cell-based, human. As to conditions: different resveratrol concentrations, 24 h.
A further series deals with TKTL1 promoter. Also noted: dose or concentration left out as unconfirmed. As to conditions: HeLa cells, resveratrol for 48 h; cited from earlier work.
Series [2] relates to SARS-CoV-2. In kind it is cell-based. Particulars: 25 μM resveratrol for 48 h, Caco-2 cells.
In series [3] the test system is SARS-CoV-2 infected Caco-2 cells. As to conditions: human.
For the next series, the system named is HeLa cells. As to conditions: cited from earlier work.
In series [4] the test system is human cytomegalovirus (HCMV). Description: HCMV-EYFP replication in human embryonic lung fibroblasts (HEL), fluorescence-based antiviral assay. Format: cell-based. As to conditions: HCMV-EYFP-infected HEL cells, 48 h incubation; read-out: 50% inhibitory concentration (IC50), EYFP emission reduced by half. The method, then:
Furthermore, the sensitivity of HCMV replication to B-OT in human mammalian cells was investigated. For this purpose, experiments were performed as described in the work of Dal Pozzo et al. 2008 with B-OT: Human embryonic lung fibroblasts (HEL) were infected with recombinant HCMV EYFP viruses additionally encoding enhanced yellow fluorescent protein (EYFP) (Dal Pozzo F, et al., 2008). As a measure of viral replication after infection with HCMV-EYFP, the emission of the EYFP protein was measured (excitation wavelength: 485 nm/emission: 530 nm). The constant and low cell-associated background emission measured in an automated manner was subtracted from the fluorescence emission value. To test the antiviral effect of B-OT, HCMV-EYFP-infected cells were incubated for 48 h with different B-OT concentrations (0 to 20 mM B-OT). Dose-dependent inhibition of fluorescence (as a measure of viral replication) was evident. The required compound concentration that reduced EYFP emission by half compared with untreated controls (0 mM B-OT) was defined as the 50% inhibitory concentration (IC50) in the fluorescence-based antiviral assay. The IC50 determined here was 0.5 mM B-OT.

The test system of series [5] is SARS-CoV-2. Description: Individual curative trials in hospitalized COVID-19 patients: viral load by PCR. In kind it is in vivo, human. Particulars: daily less than 20 mg B-OT per 70 kg body weight over 7 days.
The next series has as its system C-reactive protein (CRP). The experiment in a line: Individual curative trials in hospitalized COVID-19 patients: C-reactive protein level. In kind it is in vivo, human. Also noted: unit not given here.
In the next series the test system is interleukin-6 (IL-6). The experiment in a line: Individual curative trials in hospitalized COVID-19 patients: interleukin-6 level. Format: in vivo, human.
Where [6] appears, read: daily less than 20 mg B-OT per 70 kg, after 7 days.
Setting [7] is: hospitalized COVID-19 patients, start of therapy.

Consider `Cc1ncc(C[n+]2csc(CCO)c2C)c(=O)[nH]1` [oxythiamine], for which the blood-brain barrier penetration result in [1] is reported as “can penetrate the blood-brain barrier”.
`Oc1ccc(C=Cc2cc(O)cc(O)c2)cc1` [resveratrol]: in the series on TKTL1 mRNA, the “reduction of TKTL1 mRNA” value was “the higher the concentration the stronger the reduction”. The “reduction in TKTL1 promoter activity compared to untreated cells” value with TKTL1 promoter is given as 75%. Further, in the series on SARS-CoV-2 [2], the “decrease of replication ability of SARS-CoV-2 viruses compared to the control” value was 68%. The “viability of Caco-2 cells” value in [3] is recorded as 93%. The “viability of HeLa cells” value with HeLa cells is reported as “significant decrease in the viability of HeLa cells”.
As for `C/C(=C(\CCOP(=O)(O)O)SC(=O)c1ccccc1)N(C=O)Cc1cnc(C)[nH]c1=O` [B-OT, benfo-oxythiamine], the pIC50 in series [4] is 3.30. For the same compound, the “viral load as detected by PCR” value in the series on SARS-CoV-2 [5] is “significant reduction in viral load”. In the series on C-reactive protein (CRP) (setting [6]), the “average CRP level under 7-day B-OT therapy” value came out at 5. The “average CRP level before B-OT therapy” value in the series on C-reactive protein (CRP) (setting [7]) amounted to 77. Further, in the series on interleukin-6 (IL-6) (setting [6]), the “average IL-6 level under 7-day B-OT therapy” value amounted to 5 pg/mL. Besides, the “average IL-6 level before B-OT therapy” value with interleukin-6 (IL-6) (setting [7]) was 63 pg/mL.
